Reference: ChEMBL document CHEMBL4145445, “Design, synthesis and biological assessment of new thiazolylhydrazine derivatives as selective and reversible hMAO-A inhibitors” (Eur J Med Chem, 2018)
pIC50, pKi: −log10 of the molar value.

Assays:
Salmonella typhimurium [1] = assay: Genotoxicity in Salmonella typhimurium TA98 assessed as increase in revertant colonies at 0.3125 mg/ml in presence of Sprague-Dawley rat liver S9 fraction by Ames test relative to basal level; type: toxicity, organism-based; settings: salmonella enterica subsp. enterica serovar typhimurium
Salmonella typhimurium [2] = assay: Genotoxicity in Salmonella typhimurium TA98 assessed as increase in revertant colonies at 5 mg/ml in presence of Sprague-Dawley rat liver S9 fraction by Ames test relative to basal level; type: toxicity, organism-based; settings: salmonella enterica subsp. enterica serovar typhimurium
Salmonella typhimurium [3] = assay: Genotoxicity in Salmonella typhimurium TA100 assessed as increase in revertant colonies at 0.156 mg/ml in absence of Sprague-Dawley rat liver S9 fraction by Ames test relative to basal level; type: toxicity, organism-based; settings: salmonella enterica subsp. enterica serovar typhimurium
Salmonella typhimurium [4] = assay: Genotoxicity in Salmonella typhimurium TA100 assessed as increase in revertant colonies at 0.625 mg/ml in absence of Sprague-Dawley rat liver S9 fraction by Ames test relative to basal level; type: toxicity, organism-based; settings: salmonella enterica subsp. enterica serovar typhimurium
Salmonella typhimurium [5] = assay: Genotoxicity in Salmonella typhimurium TA98 assessed as increase in revertant colonies at 0.625 mg/ml in presence of Sprague-Dawley rat liver S9 fraction by Ames test relative to basal level; type: toxicity, organism-based; settings: salmonella enterica subsp. enterica serovar typhimurium
Salmonella typhimurium [6] = assay: Genotoxicity in Salmonella typhimurium TA100 assessed as increase in revertant colonies at 1.25 mg/ml in presence of Sprague-Dawley rat liver S9 fraction by Ames test relative to basal level; type: toxicity, organism-based; settings: salmonella enterica subsp. enterica serovar typhimurium
Salmonella typhimurium [7] = assay: Genotoxicity in Salmonella typhimurium TA100 assessed as increase in revertant colonies at 0.625 mg/ml in presence of Sprague-Dawley rat liver S9 fraction by Ames test relative to basal level; type: toxicity, organism-based; settings: salmonella enterica subsp. enterica serovar typhimurium
Salmonella typhimurium [8] = assay: Genotoxicity in Salmonella typhimurium TA100 assessed as increase in revertant colonies at 0.3125 mg/ml in absence of Sprague-Dawley rat liver S9 fraction by Ames test relative to basal level; type: toxicity, organism-based; settings: salmonella enterica subsp. enterica serovar typhimurium
Salmonella typhimurium [9] = assay: Genotoxicity in Salmonella typhimurium TA98 assessed as increase in revertant colonies at 0.156 mg/ml in absence of Sprague-Dawley rat liver S9 fraction by Ames test relative to basal level; type: toxicity, organism-based; settings: salmonella enterica subsp. enterica serovar typhimurium
Homo sapiens = organism: Homo sapiens; assay: Selectivity index, ratio of IC50 for human MAO-B to IC50 for human MAO-A
NIH3T3 = assay: Cytotoxicity against mouse NIH/3T3 cells by MTT assay; type: cell-based
Salmonella typhimurium [10] = assay: Genotoxicity in Salmonella typhimurium TA98 assessed as increase in revertant colonies at 1.25 mg/ml in presence of Sprague-Dawley rat liver S9 fraction by Ames test relative to basal level; type: toxicity, organism-based; settings: salmonella enterica subsp. enterica serovar typhimurium
Salmonella typhimurium [11] = assay: Genotoxicity in Salmonella typhimurium TA100 assessed as increase in revertant colonies at 2.5 mg/ml in absence of Sprague-Dawley rat liver S9 fraction by Ames test relative to basal level; type: toxicity, organism-based; settings: salmonella enterica subsp. enterica serovar typhimurium
Salmonella typhimurium [12] = assay: Genotoxicity in Salmonella typhimurium TA98 assessed as increase in revertant colonies at 1.25 mg/ml in absence of Sprague-Dawley rat liver S9 fraction by Ames test relative to basal level; type: toxicity, organism-based; settings: salmonella enterica subsp. enterica serovar typhimurium
Salmonella typhimurium [13] = assay: Genotoxicity in Salmonella typhimurium TA100 assessed as increase in revertant colonies at 2.5 mg/ml in presence of Sprague-Dawley rat liver S9 fraction by Ames test relative to basal level; type: toxicity, organism-based; settings: salmonella enterica subsp. enterica serovar typhimurium
[14] = target: T1, Amine oxidase [flavin-containing] A (Homo sapiens, UniProt P21397); assay: Reversible-competitive inhibition of human MAO-A using varying levels of tyramine as substrate after 30 mins by Lineweaver-Burk plot
T1 sequence (P21397 whole entry): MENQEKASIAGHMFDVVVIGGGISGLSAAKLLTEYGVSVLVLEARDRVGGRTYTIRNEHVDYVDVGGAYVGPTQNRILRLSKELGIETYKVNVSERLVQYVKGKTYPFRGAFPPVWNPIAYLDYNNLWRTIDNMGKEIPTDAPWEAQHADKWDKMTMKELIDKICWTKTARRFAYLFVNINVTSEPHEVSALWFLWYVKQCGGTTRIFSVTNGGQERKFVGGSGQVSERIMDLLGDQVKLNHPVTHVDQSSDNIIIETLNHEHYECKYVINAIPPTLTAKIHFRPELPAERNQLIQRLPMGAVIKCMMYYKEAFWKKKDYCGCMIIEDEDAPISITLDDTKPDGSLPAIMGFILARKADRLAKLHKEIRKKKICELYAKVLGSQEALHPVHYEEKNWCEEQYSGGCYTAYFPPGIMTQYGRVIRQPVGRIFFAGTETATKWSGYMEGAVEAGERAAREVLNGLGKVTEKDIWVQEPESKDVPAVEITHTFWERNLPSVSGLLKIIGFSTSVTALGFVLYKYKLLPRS

[15] = target: T2, Amine oxidase [flavin-containing] B (Homo sapiens, UniProt P27338); assay: Inhibition of human MAO-B using tyramine hydrochloride as substrate after 30 mins by Amplex Red reagent based horseradish peroxidase enzyme-coupled fluorescence assay
T2 sequence (P27338 whole entry): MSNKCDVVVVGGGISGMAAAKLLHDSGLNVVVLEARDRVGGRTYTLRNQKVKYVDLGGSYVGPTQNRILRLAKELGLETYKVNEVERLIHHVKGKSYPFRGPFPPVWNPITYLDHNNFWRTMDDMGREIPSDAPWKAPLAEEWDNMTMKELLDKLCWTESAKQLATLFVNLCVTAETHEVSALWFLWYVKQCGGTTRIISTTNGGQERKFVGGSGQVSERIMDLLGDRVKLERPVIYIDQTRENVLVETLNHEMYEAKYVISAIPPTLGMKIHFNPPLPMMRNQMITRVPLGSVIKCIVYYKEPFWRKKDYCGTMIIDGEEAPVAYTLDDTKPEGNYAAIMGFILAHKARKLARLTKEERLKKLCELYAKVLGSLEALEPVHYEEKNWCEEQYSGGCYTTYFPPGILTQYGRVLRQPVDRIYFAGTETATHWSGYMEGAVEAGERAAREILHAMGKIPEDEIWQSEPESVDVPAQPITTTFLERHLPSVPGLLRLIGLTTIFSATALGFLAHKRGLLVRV

Salmonella typhimurium [16] = assay: Genotoxicity in Salmonella typhimurium TA100 assessed as increase in revertant colonies at 0.3125 mg/ml in presence of Sprague-Dawley rat liver S9 fraction by Ames test relative to basal level; type: toxicity, organism-based; settings: salmonella enterica subsp. enterica serovar typhimurium
Salmonella typhimurium [17] = assay: Genotoxicity in Salmonella typhimurium TA98 assessed as increase in revertant colonies at 5 mg/ml in absence of Sprague-Dawley rat liver S9 fraction by Ames test relative to basal level; type: toxicity, organism-based; settings: salmonella enterica subsp. enterica serovar typhimurium
Salmonella typhimurium [18] = assay: Genotoxicity in Salmonella typhimurium TA100 assessed as increase in revertant colonies at 5 mg/ml in presence of Sprague-Dawley rat liver S9 fraction by Ames test relative to basal level; type: toxicity, organism-based; settings: salmonella enterica subsp. enterica serovar typhimurium
Salmonella typhimurium [19] = assay: Genotoxicity in Salmonella typhimurium TA98 assessed as increase in revertant colonies at 0.3125 mg/ml in absence of Sprague-Dawley rat liver S9 fraction by Ames test relative to basal level; type: toxicity, organism-based; settings: salmonella enterica subsp. enterica serovar typhimurium
Salmonella typhimurium [20] = assay: Genotoxicity in Salmonella typhimurium TA98 assessed as increase in revertant colonies at 2.5 mg/ml in presence of Sprague-Dawley rat liver S9 fraction by Ames test relative to basal level; type: toxicity, organism-based; settings: salmonella enterica subsp. enterica serovar typhimurium
[21] = target: T1, Amine oxidase [flavin-containing] A; assay: Inhibition of human MAO-A using tyramine hydrochloride as substrate after 30 mins by Amplex Red reagent based horseradish peroxidase enzyme-coupled fluorescence assay
Salmonella typhimurium [22] = assay: Genotoxicity in Salmonella typhimurium TA98 assessed as increase in revertant colonies at 0.156 mg/ml in presence of Sprague-Dawley rat liver S9 fraction by Ames test relative to basal level; type: toxicity, organism-based; settings: salmonella enterica subsp. enterica serovar typhimurium
Salmonella typhimurium [23] = assay: Genotoxicity in Salmonella typhimurium TA98 assessed as increase in revertant colonies at 2.5 mg/ml in absence of Sprague-Dawley rat liver S9 fraction by Ames test relative to basal level; type: toxicity, organism-based; settings: salmonella enterica subsp. enterica serovar typhimurium
Salmonella typhimurium [24] = assay: Genotoxicity in Salmonella typhimurium TA100 assessed as increase in revertant colonies at 5 mg/ml in absence of Sprague-Dawley rat liver S9 fraction by Ames test relative to basal level; type: toxicity, organism-based; settings: salmonella enterica subsp. enterica serovar typhimurium
Salmonella typhimurium [25] = assay: Genotoxicity in Salmonella typhimurium TA100 assessed as increase in revertant colonies at 1.25 mg/ml in absence of Sprague-Dawley rat liver S9 fraction by Ames test relative to basal level; type: toxicity, organism-based; settings: salmonella enterica subsp. enterica serovar typhimurium
[26] = target: T2, Amine oxidase [flavin-containing] B; assay: Inhibition of human MAO-B at 10^-4 to 10^-3 M using tyramine hydrochloride as substrate after 30 mins by Amplex Red reagent based horseradish peroxidase enzyme-coupled fluorescence assay relative to control; settings: 0.5 h
Salmonella typhimurium [27] = assay: Genotoxicity in Salmonella typhimurium TA100 assessed as increase in revertant colonies at 0.156 mg/ml in presence of Sprague-Dawley rat liver S9 fraction by Ames test relative to basal level; type: toxicity, organism-based; settings: salmonella enterica subsp. enterica serovar typhimurium
[28] = target: T1, Amine oxidase [flavin-containing] A; assay: Inhibition of human MAO-A at 10^-4 to 10^-3 M using tyramine hydrochloride as substrate after 30 mins by Amplex Red reagent based horseradish peroxidase enzyme-coupled fluorescence assay relative to control; settings: 0.5 h
Salmonella typhimurium [29] = assay: Genotoxicity in Salmonella typhimurium TA98 assessed as increase in revertant colonies at 0.625 mg/ml in absence of Sprague-Dawley rat liver S9 fraction by Ames test relative to basal level; type: toxicity, organism-based; settings: salmonella enterica subsp. enterica serovar typhimurium

SMILES: Fc1ccc(-c2csc(N/N=C/c3ccc(N4CCOCC4)cc3)n2)cc1
- fold change (FC) (Salmonella typhimurium [1]): 6.07
- fold change (FC) (Salmonella typhimurium [2]): 5.81
- fold change (FC) (Salmonella typhimurium [3]): 1.11
- fold change (FC) (Salmonella typhimurium [4]): 1.11
- fold change (FC) (Salmonella typhimurium [5]): 6.97
- fold change (FC) (Salmonella typhimurium [6]): 0.96
- fold change (FC) (Salmonella typhimurium [7]): 1.12
- fold change (FC) (Salmonella typhimurium [8]): 0.56
- fold change (FC) (Salmonella typhimurium [9]): 1.66
- Ratio IC50 (Homo sapiens): 1210
- pIC50 (NIH3T3): < 3.00
- fold change (FC) (Salmonella typhimurium [10]): 7.86
- fold change (FC) (Salmonella typhimurium [11]): 0.83
- fold change (FC) (Salmonella typhimurium [12]): 2
- fold change (FC) (Salmonella typhimurium [13]): 0.96
- pKi [14]: 8.18
- pIC50 [15]: 4.84
- fold change (FC) (Salmonella typhimurium [16]): 1.01
- fold change (FC) (Salmonella typhimurium [17]): 1.66
- fold change (FC) (Salmonella typhimurium [18]): 1.28
- fold change (FC) (Salmonella typhimurium [19]): 2.28
- fold change (FC) (Salmonella typhimurium [20]): 7.95
- pIC50 [21]: 7.92
- fold change (FC) (Salmonella typhimurium [22]): 4.38
- fold change (FC) (Salmonella typhimurium [23]): 1.45
- fold change (FC) (Salmonella typhimurium [24]): 1.17
- fold change (FC) (Salmonella typhimurium [25]): 0.72
- inhibition (INH) [26]: > 50%
- fold change (FC) (Salmonella typhimurium [27]): 1.07
- inhibition (INH) [28]: > 50%
- fold change (FC) (Salmonella typhimurium [29]): 1.59
